Experimental data: patent US12495798B2, “Nicotinamide compound and herbicidal composition comprising compound” (KOREA RESEARCH INSTITUTE OF CHEMICAL TECHNOLOGY, priority 2019, dated 2025)

What was measured:
Type in all cases: in vivo
corn [1] = test: Phytotoxicity test for upland field crops (foliar treatment test); set-up: key: 0 (no harm); 9 (complete withered)
Method in brief: (§1)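 Spray-booth foliar treatment of greenhouse-grown crops at 19˜300 g a.i./ha. Visual crop injury was scored 0–9 against untreated plants at 7 and 14 days.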

cotton [2] = test: as above; set-up: key: 0 (no harm); 9 (complete withered)
Method in brief: as §1

rice [3] = test: as above; set-up: key: 0 (no harm); 9 (complete withered)
Method in brief: as §1

soybean [4] = test: as above; set-up: key: 0 (no harm); 9 (complete withered)
Method in brief: as §1

wheat [5] = test: as above; set-up: key: 0 (no harm); 9 (complete withered)
Method in brief: as §1

corn [6] = test: Phytotoxicity test for field crops (soil treatment test); set-up: key: 0 (no harm); 9 (complete withered)
Experimental: (§2) Experimental Example 4: Phytotoxicity Test for Field Crops (Soil Treatment Test)
(§3) Soil treatment was performed for sown crops and weeds in a square plastic pot having a surface area of 50 cm^2 filled with sterilized horticultural soil (pH 6.1, organic material 1.0%, clay 21%, silt 17%, sand 52%). As a fertilizer per pot, 0.5 g of horticultural mixed fertilizer (N:P:K=17:21:17) was treated by mixing with soil. Five kinds of crops such as rice, wheat, corn, soybean, and cotton were sown in each pot. One day after sowing, test compound solutions were made by diluting with the diluent (33% acetone, 0.1% Tween-20) so that the final treatment amount of the test compounds was 19˜300 g a.i./ha. The prepared test compound solutions were treated using a spray booth (SB6-016) at a treatment amount of 100 ml per 1 m^2 of treatment area. The treated crops were managed in greenhouse conditions (average temperature 30±5° C., light/dark=14/10 hours). External symptoms and phytotoxicity were visually investigated 10 and 20 days after treatment. In the evaluation of the phytotoxicity for the crop, the grade of 0 (no harm) to 9 (complete withered) was used. The results of Table 10 were obtained by evaluating phytotoxicity value to the untreated control.

cotton [7] = test: as above; set-up: key: 0 (no harm); 9 (complete withered)
Experimental: as §2, §3

rice [8] = test: as above; set-up: key: 0 (no harm); 9 (complete withered)
Experimental: as §2, §3

soybean [9] = test: as above; set-up: key: 0 (no harm); 9 (complete withered)
Experimental: as §2, §3

wheat [10] = test: as above; set-up: key: 0 (no harm); 9 (complete withered)
Experimental: as §2, §3

quack grass = test: Herbicidal activity test against upland field weeds (soil treatment test); set-up: key to Soil treatment herbicidal activity, quack grass: 0 (no control); 100 (complete control); settings: 50 g ai/ha, scale 0 (no control) to 100 (complete control)
Method in brief: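 Weed control scored visually on a 0 (none) to 100 (complete) scale versus untreated pots at 14 or 21 days in greenhouse (30±5 °C, 14 h light). Test compounds, 50 or 75 g a.i./ha in 50% acetone/0.1% Tween-20, hand-sprayed onto soil one day post-sowing.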

[11] = 50 g ai/ha, Corn (7 days after treatment)
[12] = 50 g ai/ha, Corn (14 days after treatment)
[13] = 100 g ai/ha, Corn (7 days after treatment)
[14] = 100 g ai/ha, Corn (14 days after treatment)
[15] = 50 g ai/ha, Cotton (7 days after treatment)
[16] = 50 g ai/ha, Cotton (14 days after treatment)
[17] = 100 g ai/ha, Cotton (7 days after treatment)
[18] = 100 g ai/ha, Cotton (14 days after treatment)
[19] = 50 g ai/ha, Rice (7 days after treatment)
[20] = 50 g ai/ha, Rice (14 days after treatment)
[21] = 100 g ai/ha, Rice (7 days after treatment)
[22] = 100 g ai/ha, Rice (14 days after treatment)
[23] = 50 g ai/ha, Soybean (7 days after treatment)
[24] = 50 g ai/ha, Soybean (14 days after treatment)
[25] = 100 g ai/ha, Soybean (7 days after treatment)
[26] = 100 g ai/ha, Soybean (14 days after treatment)
[27] = 50 g ai/ha, Wheat (7 days after treatment)
[28] = 50 g ai/ha, Wheat (14 days after treatment)
[29] = 100 g ai/ha, Wheat (7 days after treatment)
[30] = 100 g ai/ha, Wheat (14 days after treatment)
[31] = 50 g ai/ha, Corn (10 days after treatment)
[32] = 50 g ai/ha, Corn (20 days after treatment)
[33] = 100 g ai/ha, Corn (10 days after treatment)
[34] = 100 g ai/ha, Corn (20 days after treatment)
[35] = 50 g ai/ha, Cotton (10 days after treatment)
[36] = 50 g ai/ha, Cotton (20 days after treatment)
[37] = 100 g ai/ha, Cotton (10 days after treatment)
[38] = 100 g ai/ha, Cotton (20 days after treatment)
[39] = 50 g ai/ha, Rice (10 days after treatment)
[40] = 50 g ai/ha, Rice (20 days after treatment)
[41] = 100 g ai/ha, Rice (10 days after treatment)
[42] = 100 g ai/ha, Rice (20 days after treatment)
[43] = 50 g ai/ha, Soybean (10 days after treatment)
[44] = 50 g ai/ha, Soybean (20 days after treatment)
[45] = 100 g ai/ha, Soybean (10 days after treatment)
[46] = 100 g ai/ha, Soybean (20 days after treatment)
[47] = 50 g ai/ha, Wheat (10 days after treatment)
[48] = 50 g ai/ha, Wheat (20 days after treatment)
[49] = 100 g ai/ha, Wheat (10 days after treatment)
[50] = 100 g ai/ha, Wheat (20 days after treatment)

Cn1nc(COCc2nc(C(F)(F)F)ccc2C(=O)Nc2nnnn2C)nc1C#N [Compound No. 2-134, 2-(((5-cyano-1-methyl-1H-1,2,4-triazol-3-yl)methoxy)methyl)-N-(1-methyl-1H-tetrazol-5-yl)-6-(trifluoromethyl)nicotinamide]
Foliar treatment phytotoxicity, Corn (corn [1]; [11]): 0
Foliar treatment phytotoxicity, Corn (corn [1]; [12]): 0
Foliar treatment phytotoxicity, Corn (corn [1]; [13]): 0
Foliar treatment phytotoxicity, Corn (corn [1]; [14]): 0
Foliar treatment phytotoxicity, Cotton (cotton [2]; [15]): 3
Foliar treatment phytotoxicity, Cotton (cotton [2]; [16]): 2
Foliar treatment phytotoxicity, Cotton (cotton [2]; [17]): 3
Foliar treatment phytotoxicity, Cotton (cotton [2]; [18]): 8
Foliar treatment phytotoxicity, Rice (rice [3]; [19]): 3
Foliar treatment phytotoxicity, Rice (rice [3]; [20]): 6
Foliar treatment phytotoxicity, Rice (rice [3]; [21]): 3
Foliar treatment phytotoxicity, Rice (rice [3]; [22]): 7
Foliar treatment phytotoxicity, Soybean (soybean [4]; [23]): 4
Foliar treatment phytotoxicity, Soybean (soybean [4]; [24]): 6
Foliar treatment phytotoxicity, Soybean (soybean [4]; [25]): 4
Foliar treatment phytotoxicity, Soybean (soybean [4]; [26]): 8
Foliar treatment phytotoxicity, Wheat (wheat [5]; [27]): 0
Foliar treatment phytotoxicity, Wheat (wheat [5]; [28]): 0
Foliar treatment phytotoxicity, Wheat (wheat [5]; [29]): 0
Foliar treatment phytotoxicity, Wheat (wheat [5]; [30]): 0
Soil treatment phytotoxicity, Corn (corn [6]; [31]): 0
Soil treatment phytotoxicity, Corn (corn [6]; [32]): 0
Soil treatment phytotoxicity, Corn (corn [6]; [33]): 0
Soil treatment phytotoxicity, Corn (corn [6]; [34]): 0
Soil treatment phytotoxicity, Cotton (cotton [7]; [35]): 0
Soil treatment phytotoxicity, Cotton (cotton [7]; [36]): 1
Soil treatment phytotoxicity, Cotton (cotton [7]; [37]): 0
Soil treatment phytotoxicity, Cotton (cotton [7]; [38]): 2
Soil treatment phytotoxicity, Rice (rice [8]; [39]): 1
Soil treatment phytotoxicity, Rice (rice [8]; [40]): 1
Soil treatment phytotoxicity, Rice (rice [8]; [41]): 5
Soil treatment phytotoxicity, Rice (rice [8]; [42]): 4
Soil treatment phytotoxicity, Soybean (soybean [9]; [43]): 0
Soil treatment phytotoxicity, Soybean (soybean [9]; [44]): 0
Soil treatment phytotoxicity, Soybean (soybean [9]; [45]): 0
Soil treatment phytotoxicity, Soybean (soybean [9]; [46]): 0
Soil treatment phytotoxicity, Wheat (wheat [10]; [47]): 0
Soil treatment phytotoxicity, Wheat (wheat [10]; [48]): 0
Soil treatment phytotoxicity, Wheat (wheat [10]; [49]): 0
Soil treatment phytotoxicity, Wheat (wheat [10]; [50]): 0

Cn1nc(COCc2nc(C(F)(F)F)ccc2C(=O)Nc2nnnn2C)nc1Br [Compound No. 2-136, 2-(((5-bromo-1-methyl-1H-1,2,4-triazol-3-yl)methoxy)methyl)-N-(1-methyl-1H-tetrazol-5-yl)-6-(trifluoromethyl)nicotinamide]
Foliar treatment phytotoxicity, Corn (corn [1]; [11]): 0
Foliar treatment phytotoxicity, Corn (corn [1]; [12]): 0
Foliar treatment phytotoxicity, Corn (corn [1]; [13]): 2
Foliar treatment phytotoxicity, Corn (corn [1]; [14]): 3
Foliar treatment phytotoxicity, Cotton (cotton [2]; [15]): 3
Foliar treatment phytotoxicity, Cotton (cotton [2]; [16]): 6
Foliar treatment phytotoxicity, Cotton (cotton [2]; [17]): 3
Foliar treatment phytotoxicity, Cotton (cotton [2]; [18]): 8
Foliar treatment phytotoxicity, Rice (rice [3]; [19]): 4
Foliar treatment phytotoxicity, Rice (rice [3]; [20]): 6
Foliar treatment phytotoxicity, Rice (rice [3]; [21]): 5
Foliar treatment phytotoxicity, Rice (rice [3]; [22]): 7
Foliar treatment phytotoxicity, Soybean (soybean [4]; [23]): 4
Foliar treatment phytotoxicity, Soybean (soybean [4]; [24]): 6
Foliar treatment phytotoxicity, Soybean (soybean [4]; [25]): 4
Foliar treatment phytotoxicity, Soybean (soybean [4]; [26]): 6
Foliar treatment phytotoxicity, Wheat (wheat [5]; [27]): 0
Foliar treatment phytotoxicity, Wheat (wheat [5]; [28]): 0
Foliar treatment phytotoxicity, Wheat (wheat [5]; [29]): 0
Foliar treatment phytotoxicity, Wheat (wheat [5]; [30]): 0
Soil treatment phytotoxicity, Corn (corn [6]; [31]): 0
Soil treatment phytotoxicity, Corn (corn [6]; [32]): 0
Soil treatment phytotoxicity, Corn (corn [6]; [33]): 0
Soil treatment phytotoxicity, Corn (corn [6]; [34]): 0
Soil treatment phytotoxicity, Cotton (cotton [7]; [35]): 0
Soil treatment phytotoxicity, Cotton (cotton [7]; [36]): 0
Soil treatment phytotoxicity, Cotton (cotton [7]; [37]): 1
Soil treatment phytotoxicity, Cotton (cotton [7]; [38]): 0
Soil treatment phytotoxicity, Rice (rice [8]; [39]): 3
Soil treatment phytotoxicity, Rice (rice [8]; [40]): 4
Soil treatment phytotoxicity, Rice (rice [8]; [41]): 4
Soil treatment phytotoxicity, Rice (rice [8]; [42]): 7
Soil treatment phytotoxicity, Soybean (soybean [9]; [43]): 0
Soil treatment phytotoxicity, Soybean (soybean [9]; [44]): 0
Soil treatment phytotoxicity, Wheat (wheat [10]; [47]): 0
Soil treatment phytotoxicity, Wheat (wheat [10]; [48]): 0
Soil treatment phytotoxicity, Wheat (wheat [10]; [49]): 0
Soil treatment phytotoxicity, Wheat (wheat [10]; [50]): 0

Cn1cnc(COCc2nc(C(F)F)ccc2C(=O)Nc2nnnn2C)n1 [Compound No. 2-85]
Foliar treatment phytotoxicity, Corn (corn [1]; [11]): 0
Foliar treatment phytotoxicity, Corn (corn [1]; [12]): 0
Foliar treatment phytotoxicity, Corn (corn [1]; [13]): 0
Foliar treatment phytotoxicity, Corn (corn [1]; [14]): 0
Foliar treatment phytotoxicity, Cotton (cotton [2]; [15]): 7
Foliar treatment phytotoxicity, Cotton (cotton [2]; [16]): 7
Foliar treatment phytotoxicity, Cotton (cotton [2]; [17]): 8
Foliar treatment phytotoxicity, Cotton (cotton [2]; [18]): 9
Foliar treatment phytotoxicity, Rice (rice [3]; [19]): 7
Foliar treatment phytotoxicity, Rice (rice [3]; [20]): 7
Foliar treatment phytotoxicity, Rice (rice [3]; [21]): 8
Foliar treatment phytotoxicity, Rice (rice [3]; [22]): 1
Foliar treatment phytotoxicity, Soybean (soybean [4]; [23]): 4
Foliar treatment phytotoxicity, Soybean (soybean [4]; [24]): 6
Foliar treatment phytotoxicity, Soybean (soybean [4]; [25]): 6
Foliar treatment phytotoxicity, Soybean (soybean [4]; [26]): 7
Foliar treatment phytotoxicity, Wheat (wheat [5]; [27]): 0
Foliar treatment phytotoxicity, Wheat (wheat [5]; [28]): 0
Foliar treatment phytotoxicity, Wheat (wheat [5]; [29]): 2
Foliar treatment phytotoxicity, Wheat (wheat [5]; [30]): 0
Soil treatment phytotoxicity, Corn (corn [6]; [31]): 0
Soil treatment phytotoxicity, Corn (corn [6]; [32]): 0
Soil treatment phytotoxicity, Corn (corn [6]; [33]): 0
Soil treatment phytotoxicity, Corn (corn [6]; [34]): 0
Soil treatment phytotoxicity, Cotton (cotton [7]; [35]): 0
Soil treatment phytotoxicity, Cotton (cotton [7]; [36]): 0
Soil treatment phytotoxicity, Cotton (cotton [7]; [37]): 2
Soil treatment phytotoxicity, Cotton (cotton [7]; [38]): 0
Soil treatment phytotoxicity, Rice (rice [8]; [39]): 0
Soil treatment phytotoxicity, Rice (rice [8]; [40]): 0
Soil treatment phytotoxicity, Rice (rice [8]; [41]): 1
Soil treatment phytotoxicity, Rice (rice [8]; [42]): 0
Soil treatment phytotoxicity, Soybean (soybean [9]; [43]): 2
Soil treatment phytotoxicity, Soybean (soybean [9]; [44]): 0
Soil treatment phytotoxicity, Soybean (soybean [9]; [45]): 3
Soil treatment phytotoxicity, Soybean (soybean [9]; [46]): 0
Soil treatment phytotoxicity, Wheat (wheat [10]; [47]): 0
Soil treatment phytotoxicity, Wheat (wheat [10]; [48]): 0
Soil treatment phytotoxicity, Wheat (wheat [10]; [49]): 0
Soil treatment phytotoxicity, Wheat (wheat [10]; [50]): 0

Cn1nnc(CS(=O)(=O)Cc2nc(C(F)(F)F)ccc2C(=O)Nc2nnnn2C)n1 [Compound No. 2-105, N-(1-methyl-1H-tetrazol-5-yl)-2-((((2-methyl-2H-tetrazol-5-yl)methyl)sulfonyl)methyl)-6-(trifluoromethyl)nicotinamide]
Soil treatment herbicidal activity, quack grass (quack grass): 0
Foliar treatment phytotoxicity, Corn (corn [1]; [11]): 0
Foliar treatment phytotoxicity, Corn (corn [1]; [12]): 0
Foliar treatment phytotoxicity, Corn (corn [1]; [13]): 0
Foliar treatment phytotoxicity, Corn (corn [1]; [14]): 0
Foliar treatment phytotoxicity, Wheat (wheat [5]; [27]): 3
Foliar treatment phytotoxicity, Wheat (wheat [5]; [28]): 4
Foliar treatment phytotoxicity, Wheat (wheat [5]; [29]): 4
Foliar treatment phytotoxicity, Wheat (wheat [5]; [30]): 4
